Reference: PubChem BioAssay AID1963968 (Molecular Pharmacology Branch, DTP, NCI, 2024)
pIC50: −log10 of the molar value.

Test system: 945468-187-T-J3-PDC spheroids with HUVEC/MSC, viability
Test: Anticancer human tumor 945468-187-T-J3-PDC patient-derived rectal carcinoma cell line growth inhibition [PI3K]
Conditions: for pIC50: curve of first compound; for viability, T/C: stronger effect = lower value
From the text: Combinatorial screen of targeted agents with the PI3K inhibitors inavolisib, alpelisib, duvelisib, and copanlisib in multi-cell type tumor spheroids
A high-throughput screen of multi-cell type tumor spheroids was designed to identify active combinations of targeted small molecules and PI3K pathway inhibitors. Complex spheroids include a stromal component modeled by human endothelial cells (HUVEC) and fibroblasts modeled by human mesenchymal stem cells (MSCs). The concentration ranges selected for each drug and investigational agent were based upon clinically achievable concentrations if the clinical Cmax of the agent was known.
Compounds. The drugs and investigational agents: inavolisib (NSC800729), alpelisib (NSC765974), duvelisib (NSC772469), copanlisib (NSC816437), ipatasertib (NSC767898), afuresertib (NSC778305), talazoparib (NSC767125), sapanisertib (NSC764658), selumetinib (NSC741078), tovorafenib (DAY101, NSC766906), vemurafenib (NSC761431), ravoxertinib (NSC781343), sotorasib (NSC818433), MRTX1133 (NSC 836407), abemaciclib (NSC 768073), palbociclib (NSC758247), venetoclax (NSC 766270), SY5609 (NSC837396), enzalutamide (NSC755605), and darolutamide (NSC825331), were obtained from the National Cancer Institute (NCI) Developmental Therapeutics Program Chemical Repository. The FDA-approved anticancer drug set is available from the NCI Developmental Therapeutics Program. […] The stock solutions were prepared in dimethyl sulfoxide (DMSO, Sigma-Aldrich, St. Louis, MO, cat. D2650) at 800-fold the tested concentration and stored at -70 degrees C prior to their use. All drugs and investigational agents were tested over a range starting from a high concentration at or near the clinical Cmax and decreasing in half-log increments. If the clinical Cmax for an agent had not been determined, the highest concentration tested was 10 microM.
Cell Culture. All cells were maintained in an incubator at 37 degrees C and 5% CO2 with 95% humidity. The PDC lines were cultured according to standard operating procedures established by the NCI PDMR (https://pdmr.cancer.gov/sops/default.htm). All PDCs were thawed and cultured in Matrigel-coated flasks prepared with a working solution of 1X Ham's F-12 nutrient mix, without supplementation (Invitrogen, Waltham, MA, cat. 11765054), 100 U/mL penicillin-streptomycin (Invitrogen, cat. 15140122), and 2.5% Matrigel (Corning Inc., Corning, NY, cat. 354248) for the first three passages. The 354836-022-R-J1-PDC, 475296-252-R-J1-PDC, and 997726-040-R-J2-PDC lines were cultured in 6A media, which includes advanced DMEM/F-12 (Thermo Fisher Scientific, cat. 12634028), 10 mM HEPES (Thermo Fisher Scientific, cat. 15630080), 1X GlutaMAX supplement (Thermo Fisher Scientific, cat. 35050061), 0.1 mg/mL primocin (InvivoGen, San Diego, CA, cat. ant-pm-2), 10% defined fetal bovine serum, heat inactivated (HyClone Laboratories Inc., Logan, UT, cat. SH30070.03HI), 50% L-WRN conditioned media (ATCC, cat. CRL-3276), 1.25 mM N-Acetyl-L-cysteine (Sigma-Aldrich, cat. A9165), 10 mM nicotinamide (Sigma-Aldrich, cat. N0636), 1X B-27 supplement (Thermo Fisher Scientific, cat. 17504044), 1X N-2 supplement (Thermo Fisher Scientific, cat. 17502048), and 10 microM Y-27632 dihydrochloride (Tocris Bioscience, Bristol, United Kingdom, cat. 1254). The 624824-186-R-J2-PDC line was cultured in 6C/Colon 1B media, which includes all 6A media components plus 50 ng/mL human EGF recombinant protein (Thermo Fisher Scientific, cat. PHG0311). […]

[1] = second compound 0.00316 µM, first compound 0.000316 µM
[2] = second compound 0.00316 µM, first compound 0.001 µM
[3] = second compound 0.00316 µM, first compound 0.00316 µM
[4] = second compound 0.00316 µM, first compound 0.01 µM
[5] = second compound 0.00316 µM, first compound 0.0316 µM
[6] = second compound 0.00316 µM, first compound 0.1 µM
[7] = second compound 0.01 µM, first compound 0.000316 µM
[8] = second compound 0.01 µM, first compound 0.001 µM
[9] = second compound 0.01 µM, first compound 0.00316 µM
[10] = second compound 0.01 µM, first compound 0.01 µM
[11] = second compound 0.01 µM, first compound 0.0316 µM
[12] = second compound 0.01 µM, first compound 0.1 µM
[13] = second compound 0.0316 µM, first compound 0.000316 µM
[14] = second compound 0.0316 µM, first compound 0.001 µM
[15] = second compound 0.0316 µM, first compound 0.00316 µM
[16] = second compound 0.0316 µM, first compound 0.01 µM
[17] = second compound 0.0316 µM, first compound 0.0316 µM
[18] = second compound 0.0316 µM, first compound 0.1 µM
[19] = second compound 0.1 µM, first compound 0.000316 µM
[20] = second compound 0.1 µM, first compound 0.001 µM
[21] = second compound 0.1 µM, first compound 0.00316 µM
[22] = second compound 0.1 µM, first compound 0.01 µM
[23] = second compound 0.1 µM, first compound 0.0316 µM
[24] = second compound 0.1 µM, first compound 0.1 µM
[25] = second compound 0.316 µM, first compound 0.000316 µM
[26] = second compound 0.316 µM, first compound 0.001 µM
[27] = second compound 0.316 µM, first compound 0.00316 µM
[28] = second compound 0.316 µM, first compound 0.01 µM
[29] = second compound 0.316 µM, first compound 0.0316 µM
[30] = second compound 0.316 µM, first compound 0.1 µM
[31] = second compound 1 µM, first compound 0.000316 µM
[32] = second compound 1 µM, first compound 0.001 µM
[33] = second compound 1 µM, first compound 0.00316 µM
[34] = second compound 1 µM, first compound 0.01 µM
[35] = second compound 1 µM, first compound 0.0316 µM
[36] = second compound 1 µM, first compound 0.1 µM
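Note: spheroids exposed to agents for 7 days before viability read.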
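Throughout, for viability, T/C: 100% = DMSO vehicle control viability.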

In the case of `CC(=O)c1c(C)c2cnc(Nc3ccc(N4CCNCC4)cn3)nc2n(C2CCCC2)c1=O` + CC(Nc1ccc2c(c1)OCCn1cc(N3C(=O)OCC3C(F)F)nc1-2)C(N)=O, the pIC50 (second compound 0.00316 µM) was under 7.00, the pIC50 (second compound 0.01 µM) was under 7.00 and the pIC50 (second compound 0.0316 µM) was under 7.00. The pIC50 (second compound 0.1 µM) was under 7.00, the pIC50 (second compound 0.316 µM) was under 7.00 and the pIC50 (second compound 1 µM) was 7.11. The viability, T/C [1] was 90.5%, the viability, T/C [2] was 100% and the viability, T/C [3] was 94.9%. For the same compound, the viability, T/C [4] was 99.2%, the viability, T/C [5] was 108% and the viability, T/C [6] was 110%. The viability, T/C [7] was 97.6%, the viability, T/C [8] was 104% and the viability, T/C [9] was 101%. The viability, T/C [10] was 110%, the viability, T/C [11] was 109% and the viability, T/C [12] was 103%. The viability, T/C [13] was 108%, the viability, T/C [14] was 104% and the viability, T/C [15] was 92.8%. For the same compound, the viability, T/C [16] was 116%, the viability, T/C [17] was 101% and the viability, T/C [18] was 123%. The viability, T/C [19] was 110%, the viability, T/C [20] was 111% and the viability, T/C [21] was 104%. It also gave a viability, T/C [22] of 118%, a viability, T/C [23] of 115% and a viability, T/C [24] of 119%. The viability, T/C [25] was 118%, the viability, T/C [26] was 100% and the viability, T/C [27] was 90.1%. It also gave a viability, T/C [28] of 101%, a viability, T/C [29] of 104% and a viability, T/C [30] of 81.5%. For the same compound, the viability, T/C [31] was 83.1%, the viability, T/C [32] was 67.9% and the viability, T/C [33] was 64.7%. The viability, T/C [34] was 80.6%, the viability, T/C [35] was 74.8% and the viability, T/C [36] was 43.2%.

Compound `CC(C)n1nc(-c2ccc3oc(N)nc3c2)c2c(N)ncnc21` + CC(Nc1ccc2c(c1)OCCn1cc(N3C(=O)OCC3C(F)F)nc1-2)C(N)=O has a pIC50 (second compound 0.00316 µM) of under 7.00, a pIC50 (second compound 0.01 µM) of under 7.00 and a pIC50 (second compound 0.0316 µM) of 7.03. The pIC50 (second compound 0.1 µM) was 7.13, the pIC50 (second compound 0.316 µM) was 7.56 and the pIC50 (second compound 1 µM) was 8.28. The viability, T/C [1] was 111%, the viability, T/C [2] was 104% and the viability, T/C [3] was 109%. The viability, T/C [4] was 116%, the viability, T/C [5] was 118% and the viability, T/C [6] was 71%. The viability, T/C [7] was 102%, the viability, T/C [8] was 105% and the viability, T/C [9] was 98.1%. It also gave a viability, T/C [10] of 111%, a viability, T/C [11] of 123% and a viability, T/C [12] of 63.4%. For the same compound, the viability, T/C [13] was 99.1%, the viability, T/C [14] was 94.5% and the viability, T/C [15] was 129%. It also gave a viability, T/C [16] of 110%, a viability, T/C [17] of 114% and a viability, T/C [18] of 46%. The viability, T/C [19] was 102%, the viability, T/C [20] was 107% and the viability, T/C [21] was 104%. The viability, T/C [22] was 126%, the viability, T/C [23] was 87.2% and the viability, T/C [24] was 36.7%. The viability, T/C [25] was 103%, the viability, T/C [26] was 104% and the viability, T/C [27] was 91%. For the same compound, the viability, T/C [28] was 77.8%, the viability, T/C [29] was 45.2% and the viability, T/C [30] was 24.9%. The viability, T/C [31] was 65.7%, the viability, T/C [32] was 64.9% and the viability, T/C [33] was 60.3%. For the same compound, the viability, T/C [34] was 36.3%, the viability, T/C [35] was 34.9% and the viability, T/C [36] was 29.8%.

In the case of `CCCS(=O)(=O)Nc1ccc(F)c(C(=O)c2c[nH]c3ncc(-c4ccc(Cl)cc4)cc23)c1F` + CC(Nc1ccc2c(c1)OCCn1cc(N3C(=O)OCC3C(F)F)nc1-2)C(N)=O, the pIC50 (second compound 0.00316 µM) was 5.20, the pIC50 (second compound 0.01 µM) was 5.19 and the pIC50 (second compound 0.0316 µM) was 5.18. It also gave a pIC50 (second compound 0.1 µM) of 5.15, a pIC50 (second compound 0.316 µM) of 5.20 and a pIC50 (second compound 1 µM) of 5.49. The viability, T/C [5] was 105%, the viability, T/C [6] was 96.9% and the viability, T/C (second compound 0.00316 µM, first compound 0.316 µM) was 93%. The viability, T/C (second compound 0.00316 µM, first compound 1 µM) was 104%, the viability, T/C (second compound 0.00316 µM, first compound 3.16 µM) was 97.1% and the viability, T/C (second compound 0.00316 µM, first compound 10 µM) was 17.3%. For the same compound, the viability, T/C [11] was 105%, the viability, T/C [12] was 88.7% and the viability, T/C (second compound 0.01 µM, first compound 0.316 µM) was 104%. It also gave a viability, T/C (second compound 0.01 µM, first compound 1 µM) of 102%, a viability, T/C (second compound 0.01 µM, first compound 3.16 µM) of 110% and a viability, T/C (second compound 0.01 µM, first compound 10 µM) of 17.3%. The viability, T/C [17] was 98.5%, the viability, T/C [18] was 108% and the viability, T/C (second compound 0.0316 µM, first compound 0.316 µM) was 97.7%. For the same compound, the viability, T/C (second compound 0.0316 µM, first compound 1 µM) was 94.3%, the viability, T/C (second compound 0.0316 µM, first compound 3.16 µM) was 100% and the viability, T/C (second compound 0.0316 µM, first compound 10 µM) was 22.2%. It also gave a viability, T/C [23] of 101%, a viability, T/C [24] of 102% and a viability, T/C (second compound 0.1 µM, first compound 0.316 µM) of 104%. It also gave a viability, T/C (second compound 0.1 µM, first compound 1 µM) of 99.7%, a viability, T/C (second compound 0.1 µM, first compound 3.16 µM) of 121% and a viability, T/C (second compound 0.1 µM, first compound 10 µM) of 27%. The viability, T/C [29] was 98.7%, the viability, T/C [30] was 108% and the viability, T/C (second compound 0.316 µM, first compound 0.316 µM) was 98.5%. The viability, T/C (second compound 0.316 µM, first compound 1 µM) was 114%, the viability, T/C (second compound 0.316 µM, first compound 3.16 µM) was 97.6% and the viability, T/C (second compound 0.316 µM, first compound 10 µM) was 18.9%. It also gave a viability, T/C [35] of 66%, a viability, T/C [36] of 66.6% and a viability, T/C (second compound 1 µM, first compound 0.316 µM) of 74.9%. The viability, T/C (second compound 1 µM, first compound 1 µM) was 69.4%, the viability, T/C (second compound 1 µM, first compound 3.16 µM) was 51.1% and the viability, T/C (second compound 1 µM, first compound 10 µM) was 13.9%.
